{"source": "paper PMC3092152", "about": "(Molecular oral microbiology, 2011)", "system": "S. mutans clinical strains", "test": "alamarBlue antimicrobial susceptibility test", "type": "cell-based, Streptococcus mutans", "conditions": "preliminary experiments; 16 S. mutans strains; peptide concentrations 20 μg/ml or below", "note": "Where no end group is shown, it is not given here."}
{"molecule": "HBD-1: human β-defensin, salivary cationic antimicrobial peptide (DHYNCVSSGGQCLYSACPIFTKIQGTCYRGKAKCCK; ends and bridges not checked; cysteine pairing not given here; UniProt P60022 33-68, looked up)", "values": [{"measurement": "susceptibility of S. mutans strains to the peptide", "result": "no susceptibility"}]}
{"molecule": "histatin-5", "values": [{"measurement": "susceptibility of S. mutans strains to the peptide", "result": "no susceptibility"}]}
{"molecule": "lysozyme: host protein tested in preliminary experiments against 16 S. mutans strains (protein, UniProt P61626 19-148, looked up) Lysozyme C: KVFERCELARTLKRLGMDGYRGISLANWMCLAKWESGYNTRATNYNAGDRSTDYGIFQINSRYWCNDGKTPGAVNACHLSCSALLQDNIADAVACAKRVVRDPQGIRAWVAWRNRCQNRDVRQYVQGCGV", "values": [{"measurement": "susceptibility of S. mutans strains to the peptide", "result": "no susceptibility"}]}
